Results from patent US11059820B2, “Crystalline forms of seletalisib” (UCB BIOPHARMA SPRL, priority 2017, dated 2021).

What was measured:
Type in all cases: physicochemical
[1] = Kinetic stability: solid, powdery samples exposed to air at selected temperature and relative humidity; settings: 7 weeks, solid powder exposed to air
Text: (§1) The thermodynamic stability was checked by suspending crystals of Form B for 30 days in appropriate solvent/water mixtures, thus creating environments with the desired water activity. As water activity is equivalent to relative humidity (e.g. 60% RH=water activity 0.6), and due to the more rapid exchange of molecules between the crystals and the saturated solution in the suspension, this approach gives the possibility to observe the equilibrium condition of the solid form. […] Kinetic stability was checked by exposing solid, powdery samples to air at selected temperature and relative humidity.
(§2) The thermodynamic stability was checked by suspending crystals of Form F for 30 days in appropriate solvent/water mixtures, as explained above for Form B crystals.

[2] = Thermodynamic stability: crystals suspended for 30 days in solvent/water mixtures of desired water activity
Text: as §1, §2

[3] = Dynamic Vapor Sorption (DVS); settings: 25° C.
Protocol: Two different types of DVS equipment were used, where the sample weight uptake is plotted against the relative humidity over the sample: • SMS DVS controlled by the software DVS Win. The sample temperature is maintained at 25° C. The weight change of the sample as a function of % RH (relative humidity expressed as a percentage) was monitored by the microbalance. The sample was placed on a glass pan attached to the microbalance. A moisture cycle was performed from 30 to 90 to 0 to 30% RH at 25° C. (dm/dt 0.002 with a scanning step 10%). • Projekt Messtechnik Sorptions Prüfsystem SPS 11-100n or Surface Measurement Systems DVS-1; the sample was placed on an aluminium (SPS 11) or platinum (DVS-1) holder on top of the microbalance and conditioned at 25% RH and 25° C. A moisture cycle was performed from 25 to 95 to 0 to 25% RH at 5% RH per hour at 25° C.

| kinetic stability ([1]; 25° C./60% RH) | kinetic stability ([1]; 40° C./75% RH) | thermodynamic stability under ICH conditions ([2]; 25° C./60% RH, (Hydrate)) | thermodynamic stability under ICH conditions ([2]; 40° C./75% RH, (Hydrate)) | continuous water uptake ([3]; from 25% RH to 95% RH) | stepwise mass loss ([3]; second part of the cycle (95% RH to 0% RH), at low RH) | stepwise water uptake ([3]; third part of the cycle (0% RH to 25% RH)) | thermodynamic stability under ICH conditions ([2]; 25° C./60% RH) | thermodynamic stability under ICH conditions ([2]; 40° C./75% RH) | limited water uptake ([3]; observed from 70% RH onwards) | hygroscopic behaviour (DVS) ([3]; variable relative humidity) | SMILES |
| --- | --- | --- | --- | --- | --- | --- | --- | --- | --- | --- | --- |
| kinetically stable | kinetically stable | thermodynamically stable | thermodynamically stable | ~2.4 % weight | 3.3 % weight | 3.6% | – | – | – | – | [O-][n+]1cccc(-c2nc3c(Cl)cccc3cc2[C@@H](Nc2ncnc3cccnc23)C(F)(F)F)c1 [Form B, N-{(R)-1-[8-Chloro-2-(1-oxypyridin-3-yl)quinolin-3-yl]-2,2,2-trifluoroethyl}pyrido[3,2-d]pyrimidin-4-ylamine, Crystal Form B (Hydrate)] |
| – | – | – | – | – | – | – | not to be thermodynamically stable | not to be thermodynamically stable | 1% | non-hygroscopic | [O-][n+]1cccc(-c2nc3c(Cl)cccc3cc2[C@@H](Nc2ncnc3cccnc23)C(F)(F)F)c1 [Form F, N-{(R)-1-[8-Chloro-2-(1-oxypyridin-3-yl)quinolin-3-yl]-2,2,2-trifluoroethyl}pyrido[3,2-d]pyrimidin-4-ylamine, Crystal Form F] |
